We go through 23 compounds from US9045470B2, “Compounds and compositions as TLR activity modulators” (IRM LLC, priority 2009, dated 2015).

As a reminder, the EC50 is the concentration that produces a half-maximal response.

One series concerns the target T1, human TLR7 (Homo sapiens, UniProt Q9NYK1).
T1 construct: expressed in transfected cells; host or cells: HEK 293 (human embryonic kidney 293), stably transfected; co-transfected pNifty-Luciferase reporter
T1 sequence (Q9NYK1 27-1049): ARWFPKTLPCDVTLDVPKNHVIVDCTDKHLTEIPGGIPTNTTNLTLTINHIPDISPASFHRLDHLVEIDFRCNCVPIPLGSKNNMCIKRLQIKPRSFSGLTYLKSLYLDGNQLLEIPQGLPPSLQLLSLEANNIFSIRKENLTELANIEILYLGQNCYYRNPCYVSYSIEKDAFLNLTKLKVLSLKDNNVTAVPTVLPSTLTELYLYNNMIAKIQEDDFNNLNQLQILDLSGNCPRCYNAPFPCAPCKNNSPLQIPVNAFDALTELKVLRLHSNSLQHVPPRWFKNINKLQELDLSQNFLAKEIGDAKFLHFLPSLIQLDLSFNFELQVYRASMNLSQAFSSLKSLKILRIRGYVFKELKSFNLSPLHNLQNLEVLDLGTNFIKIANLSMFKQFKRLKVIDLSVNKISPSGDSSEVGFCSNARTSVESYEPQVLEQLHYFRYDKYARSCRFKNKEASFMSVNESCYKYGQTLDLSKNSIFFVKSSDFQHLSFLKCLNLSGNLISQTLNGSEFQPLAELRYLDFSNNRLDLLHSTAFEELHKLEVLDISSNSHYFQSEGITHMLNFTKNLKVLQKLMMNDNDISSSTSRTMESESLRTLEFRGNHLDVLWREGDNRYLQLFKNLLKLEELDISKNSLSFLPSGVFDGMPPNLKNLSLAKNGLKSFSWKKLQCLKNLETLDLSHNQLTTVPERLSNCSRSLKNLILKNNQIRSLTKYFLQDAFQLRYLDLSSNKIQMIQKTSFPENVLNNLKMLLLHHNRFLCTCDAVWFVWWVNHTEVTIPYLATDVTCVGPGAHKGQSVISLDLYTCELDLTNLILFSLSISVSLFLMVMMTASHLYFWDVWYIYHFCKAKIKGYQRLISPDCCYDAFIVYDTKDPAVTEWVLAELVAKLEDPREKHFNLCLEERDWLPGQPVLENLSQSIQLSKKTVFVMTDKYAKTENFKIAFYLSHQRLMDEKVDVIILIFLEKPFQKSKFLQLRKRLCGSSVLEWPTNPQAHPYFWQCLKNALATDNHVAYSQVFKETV
The series is described as follows: Reporter gene assay: HEK293 cells stably transfected with human TLR7 and NF-kB-driven luciferase reporter.
Settings: not given
In kind it is cell-based. How it is done: Human embryonic kidney 293 (HEK 293) cells were stably transfected with human TLR7 and an NF-kB-driven luciferase reporter vector (pNifty-Luciferase). As a control assay, normal Hek293 transfected with pNifty-Luc were used. Cells were cultured in DMEM supplemented with 2 mM L-glutamine, 10% heart inactivated FBS, 1% penicillin and streptomycin, 2 μg/ml puromycin (InvivoGen #ant-pr-5) and 5 μg/ml of blasticidin (Invitrogen #46-1120). Bright-Glo™ Luciferase assay buffer and substrate were supplied by Promega #E263B and #E264B (assay substrate and buffer respectively). 384 well clear-bottom plates were supplied by Greiner bio-one (#789163-G) and were custom bar-coded plates.
Cells were plated at 25,000 cells/well in 384-well plates in a final volume of 50 μl of media. Cells were allowed to adhere to the plates after overnight (18 hours) culture at 37° C. and 5% CO2. Serially diluted experimental and positive control compounds were then dispensed to each well and incubated for 7 hours at 37° C. and 5% CO2. Cells stimulated with DMSO alone also serve as negative controls. After the incubation, 30 μl of the pre-mix assay buffer and substrate buffer were added to each well according to manufacturer's instructions.
The EC50 value in those experiments is given as that concentration of the test compound in question that provoke a response halfway between the baseline and maximum responses. […] Such EC50 values are obtained relative to the activity of resiquimod set to 100%.
For orientation: Reporter assays use an easily measured gene product as a stand-in for the process of interest.
Consider `Cc1ccc2c(c1)nc(N)c1ncc(CCc3ccc(OCP(=O)(O)O)cc3C)cc12` [Compound 3, (4-(2-(5-amino-8-methylbenzo[f][1,7]naphthyridin-2-yl)ethyl)-3-methylphenoxy)methylphosphonic acid], for which the EC50 amounted to 3170 nM.

Consider `Cc1ccc2c(c1)nc(N)c1ncc(CCc3ccc(OCCCCC(F)(F)P(=O)(O)O)cc3C)cc12` [Compound 4, 5-(4-(2-(5-amino-8-methylbenzo[f][1,7]naphthyridin-2-yl)ethyl)-3-methylphenoxy)-1,1-difluoropentylphosphonic acid], for which the response was half-maximal at 559 nM (EC50).

`Cc1ccc2c(c1)nc(N)c1ncc(CCc3ccc(OCCOCCOCCC(F)(F)P(=O)(O)O)cc3C)cc12` [Compound 6, 3-(2-(2-(4-(2-(5-amino-8-methylbenzo[f][1,7]naphthyridin-2-yl)ethyl)-3-methylphenoxy)ethoxy)ethoxy)-1,1-difluoropropylphosphonic acid] had an EC50 of 1640 nM.

In turn, `Cc1ccc2c(c1)nc(N)c1ncc(CCc3ccc(OCCOCCC(F)(F)P(=O)(O)O)cc3C)cc12` [Compound 7, 3-(2-(4-(2-(5-amino-8-methylbenzo[f][1,7]naphthyridin-2-yl)ethyl)-3-methylphenoxy)ethoxy)-1,1-difluoropropylphosphonic acid] gave an EC50 of 1010 nM.

As to `Cc1ccc2c(c1)nc(N)c1ncc(CCc3ccc(OCc4ccc(CC(F)(F)P(=O)(O)O)cc4)cc3C)cc12` [Compound 8, 2-(4-((4-(2-(5-amino-8-methylbenzo[f][1,7]naphthyridin-2-yl)ethyl)-3-methylphenoxy)methyl)phenyl)-1,1-difluoroethylphosphonic acid], the EC50 stood at 375 nM.

`COc1ccc(CCc2cnc3c(N)nc4cc(C(=O)C(F)(F)P(=O)(O)O)ccc4c3c2)c(C)c1` [Compound 9, 2-(5-amino-2-(4-methoxy-2-methylphenethyl)benzo[f][1,7]naphthyridin-8-yl)-1,1-difluoro-2-oxoethylphosphonic acid] came in with an EC50 of 390 nM.

`COc1ccc(CCc2cnc3c(N)nc4cc(/C=C/P(=O)(O)O)ccc4c3c2)c(C)c1` [Compound 10, (E)-2-(5-Amino-2-(4-methoxy-2-methylphenethyl)benzo[f][1,7]naphthyridin-8-yl)vinylphosphonic acid] gave an EC50 of 153 nM.

Compound `COc1ccc(CCc2cnc3c(N)nc4cc(CCP(=O)(O)O)ccc4c3c2)c(C)c1` [Compound 11, 2-(5-amino-2-(4-methoxy-2-methylphenethyl)benzo[f][1,7]naphthyridin-8-yl)ethylphosphonic acid] displayed a 50% effective concentration (EC50) of 90 nM.

`COc1ccc(CCc2cnc3c(N)nc4cc(/C=C(\F)P(=O)(O)O)ccc4c3c2)c(C)c1` [Compound 12, (E)-2-(5-Amino-2-(4-methoxy-2-methylphenethyl)benzo[f][1,7]naphthyridin-8-yl)-1-fluorovinylphosphonic acid] displayed an EC50 of 201 nM.

In turn, `Cc1ccc2c(c1)nc(N)c1ncc(CCc3ccc(OCc4cccc(P(=O)(O)O)c4)cc3C)cc12` [Compound 13, 3-((4-(2-(5-amino-8-methylbenzo[f][1,7]naphthyridin-2-yl)ethyl)-3-methylphenoxy)methyl)phenylphosphonic acid] had an EC50 of 1050 nM.

`COc1ccc(CCc2cnc3c(N)nc4cc(C(=O)P(=O)(O)O)ccc4c3c2)c(C)c1` [Compound 14, 5-amino-2-(4-methoxy-2-methylphenethyl)benzo[f][1,7]naphthyridine-8-carbonylphosphonic acid] returned an EC50 of 885 nM.

Compound `Cc1cc(OCCCP(=O)(O)O)ccc1CCc1cnc2c(N)nc3cc(CCC(=O)O)ccc3c2c1` [Compound 15, 3-(5-amino-2-(2-methyl-4-(3-phosphonopropoxy)phenethyl)benzo[f][1,7]naphthyridin-8-yl)propanoic acid] showed an EC50 of 65 nM.

`Cc1cc(OCCOCCOCCOCCP(=O)(O)O)ccc1CCc1cnc2c(N)nc3cc(CCC(=O)O)ccc3c2c1` [Compound 18, 3-(5-amino-2-(2-methyl-4-(2-(2-(2-(2-phosphonoethoxy)ethoxy)ethoxy)ethoxy)phenethyl)benzo[f][1,7]naphthyridin-8-yl)propanoic acid]: the half-maximal effective concentration (EC50) stood at 964 nM.

Compound `Cc1ccc2c(c1)nc(N)c1ncc(CCc3ccc(OCCP(=O)(O)O)cc3C)cc12` [Compound 22, 2-(4-(2-(5-amino-8-methylbenzo[f][1,7]naphthyridin-2-yl)ethyl)-3-methylphenoxy)ethylphosphonic acid] came in with an EC50 of 1160 nM.

As for `Cc1ccc2c(c1)nc(N)c1ncc(CCc3ccc(OCCCCCCP(=O)(O)O)cc3C)cc12` [Compound 23, 6-(4-(2-(5-amino-8-methylbenzo[f][1,7]naphthyridin-2-yl)ethyl)-3-methylphenoxy)hexylphosphonic acid], the response was half-maximal at 791 nM (EC50).

Turning to `Cc1ccc2c(c1)nc(N)c1ncc(CCc3ccc(OCCCCCC(F)(F)P(=O)(O)O)cc3C)cc12` [Compound 24, 6-(4-(2-(5-amino-8-methylbenzo[f][1,7]naphthyridin-2-yl)ethyl)-3-methylphenoxy)-1,1-difluorohexylphosphonic acid], the midpoint of the response, the EC50, lay at 4260 nM.

As to `Cc1ccc2c(c1)nc(N)c1ncc(CCc3ccc(OCc4ccc(CP(=O)(O)O)cc4)cc3C)cc12` [Compound 25, 4-((4-(2-(5-amino-8-methylbenzo[f][1,7]naphthyridin-2-yl)ethyl)-3-methylphenoxy)methyl)benzylphosphonic acid], the EC50 came to 975 nM.

The compound `Cc1ccc2c(c1)nc(N)c1ncc(CCc3ccc(OCCOCCOCCP(=O)(O)O)cc3C)cc12` [Compound 26, 2-(2-(2-(4-(2-(5-amino-8-methylbenzo[f][1,7]naphthyridin-2-yl)ethyl)-3-methylphenoxy)ethoxy)ethoxy)ethylphosphonic acid] gave an EC50 of 2590 nM.

In turn, `Cc1ccc2c(c1)nc(N)c1ncc(CCc3ccc(OCCCCCP(=O)(O)O)cc3C)cc12` [Compound 27, 5-(4-(2-(5-amino-8-methylbenzo[f][1,7]naphthyridin-2-yl)ethyl)-3-methylphenoxy)pentylphosphonic acid] yielded an EC50 of 921 nM.

In turn, `Cc1ccc2c(c1)nc(N)c1ncc(CCc3ccc(OCCCCP(=O)(O)O)cc3C)cc12` [Compound 28, 4-(4-(2-(5-amino-8-methylbenzo[f][1,7]naphthyridin-2-yl)ethyl)-3-methylphenoxy)butylphosphonic acid] registered an EC50 of 524 nM.

The series is the same for the next values; noted with them: HEK293 stably transfected with human TLR7 and NF-kB luciferase reporter; 7 hours incubation; relative to resiquimod set to 100%; read-out: Human TLR7 EC50 (nM) HEK293.
Turning to `Cc1ccc2c(c1)nc(N)c1ncc(CCc3ccc(OP(=O)(O)O)cc3C)cc12` [Compound 2, 4-(2-(5-amino-8-methylbenzo[f][1,7]naphthyridin-2-yl)ethyl)-3-methylphenyl dihydrogen phosphate], the EC50 was found to be 315 nM.

As for `Cc1cc(OCCOCCP(=O)(O)O)ccc1CCc1cnc2c(N)nc3cc(CCC(=O)O)ccc3c2c1` [Compound 21, 3-(5-amino-2-(2-methyl-4-(2-(2-phosphonoethoxy)ethoxy)phenethyl)benzo[f][1,7]naphthyridin-8-yl)propanoic acid], the EC50 worked out at 204 nM.

System in the next series: not listed separately
The series is described as follows: Binding to alum in 10 mM histidine buffer, LC-MS/MS of supernatant. The series is classed as physicochemical. Particulars: 10 mM histidine buffer pH 6.8; final compound 0.1 mg/mL; 37° C. for 5 hours; 100% minus % unbound.
Method: The resulting solution was diluted 10-fold with blank histidine buffer to a final compound concentration of 0.1 mg/mL. Diluted solutions were incubated at 37° C. for 5 hours. The samples were centrifuged at 14,000 rpm for 10 minutes to pellet the insoluble. The supernatant (along with an internal standard) was then evaluated by LC-MS/MS using a ballistic gradient (from 5% CH3CN-0.5% formic acid to 95% CH3CN-1.0% formic acid in 3.5 minutes) on a Waters Atlantis dC18 (50 mm×2.1 mm) column at room temperature against a calibration curve prepared at known compound concentrations ranging from 0.005 to 50 μM. The concentration in the supernatant was calculated as % unbound to alum compared to control; the % bound to alum was calculated as 100% minus % unbound.
On to `Cc1ccc2c(c1)nc(N)c1ncc(CCc3ccc(OCCOCCOCCC(F)(F)P(=O)(O)O)cc3C)cc12` [Compound 6, 3-(2-(2-(4-(2-(5-amino-8-methylbenzo[f][1,7]naphthyridin-2-yl)ethyl)-3-methylphenoxy)ethoxy)ethoxy)-1,1-difluoropropylphosphonic acid], for which the “% Alum bound in Histidine buffer” value turned out to be 98.2%.

Regarding `Cc1cc(OCCOCCC(F)(F)P(=O)(O)O)ccc1CCc1cnc2c(N)nc3cc(CCC(=O)O)ccc3c2c1` [Compound 19, 3-(5-amino-2-(4-(2-(3,3-difluoro-3-phosphonopropoxy)ethoxy)-2-methylphenethyl)benzo[f][1,7]naphthyridin-8-yl)propanoic acid], the “% Alum bound in Histidine buffer” value is 96.0%.
